According to PubChem BioAssay AID179 (DTP/NCI, 2004):
pEC50, pIC50: −log10 of the molar value. “And” between values parts separate entries of the source, which are not always exact repeats. Equal entries are not always repeated. The source made the active and inactive calls.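 How the source made its calls: active means compounds giving half or more protection of infected cells from virus-caused growth loss, again on retest; inactive means the rest.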 Where a SMILES comes first, the peptide text is derived from it. The star is where a group is joined. Cbz = O=C(OCc1ccccc1)*

System: CEM cells HIV-1 protection, formazan growth assay
Test: NCI AIDS Antiviral Assay
Conditions: for pIC50: measured here: growth of uninfected CEM cells
Method in brief: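 Soluble formazan readout of cell growth; CEM cells ± HIV-1; 5 drug concs. ≥50% protection → retest; ≥50% again = moderately active; reproducible 100% = confirmed active.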

SMILES	outcome	pEC50	pIC50
Nc1c(-c2ccc(Cl)cc2Cl)[n+]([O-])c2ccccc2[n+]1[O-]	inactive		
O=C(O)C(CS)Nc1c2ccccc2nc2ccccc12 (stereo not drawn)	inactive		
O=C(/C=C/c1ccc(O)c(O)c1O)OCCc1ccccc1		< 3.70	5.63
COC(=NC(C)C)NC(C)C		< 3.70	< 3.70
OC1[C@@H]2[C@@H](O)CCCN2C[C@@H](O)[C@H]1O (stereo partly drawn)		< 3.70	< 3.70
COC(=O)/C=C(\C)CCC1SC1(C)C (stereo not drawn)		< 4.00	< 4.00
CC(=O)/C(=C/n1c(=S)[nH]c2ccc([N+](=O)[O-])cc21)C(=O)Nc1ccc(Cl)cc1		< 4.00	< 4.00
OCCN(CCO)c1nc(N(CCO)CCO)nc(N(CCO)CCO)n1		< 3.70	< 3.70
O=C(O)CC[P+](c1ccccc1)(c1ccccc1)c1ccccc1		< 3.70	4.66 and < 3.70
O=C(Nc1ccc(O)cc1)C(Cl)(Cl)Cl		< 3.70	4.40
COc1cc(CC2c3cc(OC)c(OC)cc3CCN2C)c(Oc2cc3c(cc2OC)-c2c(OC)c(OC)c(OC)c4c2C(C3)N(C)CC4)cc1OC (stereo not drawn)	inactive		
Cc1ccc(C)c(N=C2NC(=O)C(CC(=O)Nc3ccc(Cl)cc3Cl)S2)c1 (stereo not drawn)		< 4.35	4.71
CC(C)CC(NC(=O)OC(C)(C)C)C(=O)Nc1ccc(Nc2nc(F)nc(-c3c4ccccc4c4n3CCS4)n2)cc1 (stereo not drawn)		< 5.22	< 5.22
O=C(NCCc1c(-c2ccccc2)[nH]c2ccccc12)C(F)(F)C(F)(F)F		< 3.70	4.59
N#Cc1c(N)n(-c2nc3ccccc3s2)c(=O)c2cc([N+](=O)[O-])ccc12		< 4.00	4.92
CC1=CCC(O)C=CC(C)C(O)C(C)C=C(C)C(=O)c2c(O)c(C)cc3c2C(=O)C(N)=C(NC(=O)/C=C\C=C/C=CC(C)C(O)CC1=O)C3=O (stereo not drawn)		< 3.74	4.01
OC(C#CCN1CCCC1)(c1ccccc1)c1ccccc1Cl.[C-]#[O+].[C-]#[O+].[C-]#[O+].[C-]#[O+].[C-]#[O+].[C-]#[O+].[Co].[Co] (stereo not drawn)		< 3.70	5.28
CCOC(=O)c1c(NS(=O)(=O)c2ccc(Br)cc2)sc2c1CCCC2	inactive		
COc1ccc2c(C3(C)OC(=O)c4ccccc43)cccc2c1 (stereo not drawn)		< 4.39	< 4.39
Nc1cc(=O)[nH]c(=S)n1-c1ccc(Cl)cc1		< 3.70	< 3.70
COc1ccc(C(=O)CC(c2ccccc2)[C@H]2C(c3ccc(OC)cc3)=Nc3c(nc(SC)n(C)c3=O)NC2c2ccccc2)cc1 (stereo partly drawn)		< 3.70	4.72
Nc1nc(Cl)cc(NCC2(CO)CC(c3ccccc3)C2)n1 (stereo not drawn)		< 4.70	5.80

SMILES	outcome	pEC50	pIC50
CSC1=NCc2c(sc3c2CCCC3)N1		< 3.70	4.45
CCCSc1nc(COC(=O)NC)c(COC(=O)NC)n1C		< 3.70	4.08
CN(C)CN(C)c1nc(N(C)C)nc(N(C)CN(C)C)n1		< 3.70	4.49
CCCCCCOc1ccc(C(=O)N(C)O)cc1		< 3.70	4.94
COc1cc(CC(C)N[C@@H](C)c2ccccc2)cc(OC)c1 (stereo partly drawn)		< 3.70	4.73 and 4.19
COP(C)(=O)C1=CCN(C(=O)OCC[Si](C)(C)C)CC1 (stereo not drawn)		< 3.70	< 3.70
Cc1ccc(S(=O)(=O)NC(=O)NCCCSSCCCNC(=O)NS(=O)(=O)c2ccc(C)cc2)cc1		< 3.70	< 3.70
CC(=O)c1cccc(C(C)=O)c1N=Cc1ccc(Cl)cc1		< 3.70	4.88
COc1ccc(N2C(=O)C3c4[nH]c5cccc(Cl)c5c4C4CCC(C(C)(C)C)CC4C3C2=O)cc1 (stereo not drawn)		< 3.70	
COC1=CC23C=CC1[C@@H](c1ccccc1)C2=C(C)C(=O)N3C(=O)NC1CCCCC1 (stereo partly drawn)		< 4.89	< 4.89
CCOC(=O)C(=O)N1C(C)=C(C(=O)OCC)CC(C(=O)OCC)=C1C		< 3.70	< 3.70
COC(=O)/C(C#N)=C1\CCc2ccccc21		< 2.93	< 2.93
O=C(N/C(=C\c1ccccc1)C1Nc2ccccc2C(=O)O1)c1ccccc1 (stereo not drawn)		< 3.70	4.76
CN(O)C(=O)Cc1ccccc1		< 4.82	< 4.82
N#C/C(=C\NC(=S)C(N)=S)c1nc2ccccc2s1		< 3.70	5.24
CN1CCN(C2=Nc3ccccc3Cc3ccccc32)CC1		< 3.77	4.19
COc1ccc(/C=C/C(=O)c2cccc(C(=O)/C=C/c3ccc(OC)c(OC)c3)n2)cc1OC		< 3.70	3.96
CC(C)(O)/C1=C/C=C/CCCCCCCCCC1		< 3.70	4.46
Cc1nnc(N/N=C(/C(=O)C(C#N)c2ccc(Cl)cc2)C(C#N)c2ccc(Cl)cc2)n1N (stereo not drawn)		< 3.27	4.04
CC(C)NCC(O)c1cc(OCc2ccccc2)c(OCc2ccccc2)cc1NC(=O)CCC(=O)O (stereo not drawn)		< 3.70	5.80
COc1cc([N+](=O)[O-])ccc1NC(=O)C(F)(F)F		< 3.70	4.24
O=c1oc2ccccc2c2c1Sc1ccccc1N2		< 4.29	< 4.29

SMILES	outcome	pEC50	pIC50
Cc1ccc(Nc2nc(C)c(C(=O)CC(=O)C(=O)Nc3c(C)cccc3C(C)(C)C)s2)cc1		< 3.70	< 3.70
Clc1nc(Cl)nc(Nc2ccccc2Cl)n1		< 3.70	4.01
S=c1cc(-c2ccccc2)ss1		< 3.70	4.42 and < 3.70
CCOC(=O)Nc1nc2ccn(C)c2s1		< 3.70	< 3.70
NC(=O)c1c(-c2ccccc2)c(-c2ccccc2)cc2c(=O)c3ccccc3[nH]c12	inactive		
CCOC(=O)C1(C/C=C/CBr)Cc2ccccc2C1=O (stereo not drawn)		< 3.70	5.78
CCCC[C@@H]1CCN2C[C@@H](O)[C@@H](O)[C@H]2[C@@H]1O		< 3.70	< 3.70
C[C@@]1(CO)[C@H](O)CC[C@@]2(C)[C@H]1CC[C@H]1C[C@@H]3C[C@@]12CC[C@@]3(O)COC(=O)CN		< 3.24	6.48
O=c1[nH][nH]c(=O)n1Cc1cccc(Cn2c(=O)[nH][nH]c2=O)c1		< 3.70	< 3.70
C(#CP(c1ccccc1)c1ccccc1)P(c1ccccc1)c1ccccc1.C(#CP(c1ccccc1)c1ccccc1)P(c1ccccc1)c1ccccc1.C(#CP(c1ccccc1)c1ccccc1)P(c1ccccc1)c1ccccc1.C(#CP(c1ccccc1)c1ccccc1)P(c1ccccc1)c1ccccc1.[Pt].[Pt]		< 5.16	5.32
Cc1cc2c(cc1CO)N1Cc3cc(C)c(CO)cc3N(C2)C1	inactive		
c1ccc(CSCCC(SCc2ccccc2)SCc2ccccc2)cc1		< 3.70	< 3.70
O=C1c2cccc3cccc(c23)C(=O)N1CCCN(CCO)CCO		< 3.70	4.91
NN1CCOC1=O		< 3.70	< 3.70
O=C(O)CCSSc1ccc([N+](=O)[O-])cc1[N+](=O)[O-]		< 3.70	4.80
COC(=O)C(NC(=O)C(C)NC(=O)C1CCCN1C(=O)CNC(=O)C(CO)NC(=O)C(NC(=O)OCc1ccccc1)C(C)O)C(C)O (stereo not drawn) (Cbz-TSGPAT-OMe; configuration not given here)		< 3.44	< 3.44
Nc1c(C(=O)Nc2ccc(C3=NCCN3)cc2)cccc1C(=O)Nc1ccc(C2=NCCN2)cc1		< 3.96	4.17
NN=C(CC(O)(C(F)(F)Cl)C(F)(F)Cl)CC(O)(C(F)(F)Cl)C(F)(F)Cl		< 3.70	5.16
CC1=C2C3OC(=O)C(C)C3C(O)C[C@@]2(C)C(=O)CC1 (stereo partly drawn)	inactive		
O=C1C2C3SC(c4c3ccc3ccccc43)C2C(=O)N1c1ccccc1 (stereo not drawn)		< 5.53	< 5.53
COc1ccc2c(c1)CSC(c1ccccc1)C2=O (stereo not drawn)		< 4.01	4.26
CCN1CC(C)Cn2c(=S)[nH]c3cc(Br)cc1c32 (stereo not drawn)		5.30	3.86

SMILES	outcome	pEC50	pIC50
CCOC(=O)NC1C2CC(=O)OC(O2)C1OC(C)=O (stereo not drawn)		< 3.04	4.40
Cc1ccc(S(=O)(=O)N2CCc3cc(O)c([N+](=O)[O-])cc32)cc1		< 3.70	< 3.70
CC(=O)NNc1nc(C)c(C(=O)NNC(=O)C(=O)Nc2ccccc2C#N)s1		< 4.05	4.29
Cc1ncc([N+](=O)[O-])n1CCNS(=O)(=O)CCCn1ncnc1[N+](=O)[O-]		< 3.70	< 3.70
COc1cccc(/C=N/[N-]C(=O)c2ccncc2)c1[O-].[Mn+2].[OH3+]		< 4.40	5.18
NNc1[nH]c(=S)[nH]c1C(N)=O		< 3.70	< 3.70
Cc1ccc(S(=O)(=O)c2[nH]cc(/C(=C\C3CCCCC3)[N+](=O)[O-])c2C2CCCCC2)cc1		< 5.70	5.94
Cc1cn(C2CC(O)C(CO)C2C)c(=O)[nH]c1=O (stereo not drawn)		< 3.70	< 3.70
CCCCCCSSCCCCCC		< 3.70	< 3.70
O=S1(=O)OC(c2cc(Br)c(O)c(Br)c2)(c2cc(Br)c(O)c(Br)c2)c2ccccc21	inactive		
CCOC(=O)C(NC(=O)CC)(Nc1ccc(S(=O)(=O)Nc2ccc(OC)nn2)cc1)C(F)(F)F (stereo not drawn)		< 3.70	< 3.70
CCO/C(CCn1[nH]c(=O)c(Cl)c(Cl)c1=O)=N\NC(=O)C(=O)NN		< 5.15	< 5.15
COC1C(=O)CCC2(CO2)C1(O)C1(C)OC1CCC(C)C (stereo not drawn)		< 3.70	5.36
O=c1[nH]nc(-c2ccccc2)n1/N=C/c1cccnc1		< 3.70	4.21
N#CC12C3C4C5C3C1C(C42)n1c(=O)n(-c2ccccc2)c(=O)n15 (stereo not drawn)		< 3.70	< 3.70
CN(C)CCSC1=Nc2ccc(Cl)cc2C(c2ccccc2Cl)N(C)C1 (stereo not drawn)		< 3.70	4.70
COc1ccccc1C1C(Cl)C(=O)N1NC(=O)Cc1ccccc1 (stereo not drawn)		< 4.40	< 4.40
N#CC1(C#N)C2C=CC(C3CCC=C32)C1(C#N)C#N (stereo not drawn)		< 3.70	5.11
CC(=O)/C(=C/c1ccc(-c2ccccc2)cc1)C(=O)c1ccccc1		5.80	4.80
NC(=S)N/N=C1\c2ccccc2CCC1CCC1(O)CCc2ccccc2C1=O (stereo not drawn)		< 3.70	4.50
